The values below come from patent US20030220524A1, “Sulfur containing compounds” (priority 2000, published 2003).

Common to all, as to assay: TUNEL, flow cytometry
Holding throughout (assay type): cell-based, human
Common to all, as to details: 48 h
Background: A flow cytometer gives signals particle by particle.

Test [1] concerns B1 leukemic cell line. How it is done: (§1) Adherent cell lines were plated at 35×10^4 cells/60 cm^2 dish the day before exposure to compound. Suspension cells were seeded at 25×10^4 cells/mL in a 6 well dish (Falcon) the day of exposure to compound. Mononucleated, T-cell depleted normal bone marrow cells were seeded at 50×10^4 cells/mL in a 6 well dish the day of exposure to compound. Cells were exposed to solvent control or approximate MTT50 and MTT30 concentrations of the compound. After 48 h of exposure to the compound, cells were harvested and fixed with a final concentration of 4% formaldehyde. Fixed cells were stored at −20° C. in 70% ethanol for no more than 5 days. Approximately 10^5 cells were pelleted and labeled with 0.02 mM Biotin-dUTP and 12.5 U TdT enzyme in a 1× reaction buffer (200 mM potassium cacodylate, 25 mM Tris-HCl, 25 μg/mL bovine serum albumin, pH 6.6), 2.5 mM CoCl2 and 0.01 mM dTTP (Roche Molecular Biochemicals, Laval, QC, Canada) for 45 min at 37° C. Samples were washed and incubated in 200 μL of 1:1000 fluorescein isothiocyanate (FITC)-conjugated avidin (Sigma) in 4×SSC, 5% skim milk powder and 0.05% Tween-20 (Sigma). Following 1 h of mixing at room temperature, the samples were washed and resuspended in 500 μL of D-PBS containing 2.5 μg/mL DNase-free RNase (Boehringer Mannheim) and 10 μg/mL PI. Following a 30 min incubation at room temperature, cells were analyzed using a XL-MCL flow cytometer (Coulter Corporation, Miami, Fla.) and a FACScalibar cytometer (Becton Dickinson, San Jose, Calif.). Profiles shown are representative of one experiment.
as §1, with “? s” for “Cells”, “appr ? nate” for “approximate”, “of” for “of the”, “Pl.” for “PI.”

Test [2] has as its system G2 leukemic cell line. As to the method:
as §1
as §1, with “? s” for “Cells”, “appr ? nate” for “approximate”, “of” for “of the”, “Pl.” for “PI.”

The subject of test [3] is NB-4 leukemic cell line. How it is done:
as §1
as §1, with “? s” for “Cells”, “appr ? nate” for “approximate”, “of” for “of the”, “Pl.” for “PI.”

Test [4] concerns WI38 non-transformed diploid fibroblasts. As to the method: as §1
as §1, with “? s” for “Cells”, “appr ? nate” for “approximate”, “of” for “of the”, “Pl.” for “PI.”

With `CCC(=O)OCSSc1ccccc1` [Compound Q, 1-phenyl-1,2-dithiapropyl propionate], the “% TUNEL +ve” value in test [1] (dose 25 uM) was determined as 32%; in test [1] (dose 50 uM), 78%; in test [2] (dose 25 uM) it was 23%; in test [2] (dose 50 uM), 58%; in test [3] (dose 50 uM) it was 16%; in test [4] (dose 25 uM), 4%. Further, the “% TUNEL +ve” value in test [4] (dose 50 uM) is on record as 0.2%.
For the molecule `CSCSSC` [Compound N, 2,3,5-trithiahexane], the “% TUNEL +ve” value in test [1] (dose 50 uM) worked out at 49%; in test [1] (dose 100 uM) it was 44%; in test [2] (dose 50 uM), 18%; in test [2] (dose 100 uM) it was 19%; in test [3] (dose 50 uM), 17%; in test [3] (dose 100 uM), 19%. The “% TUNEL +ve” value is recorded as 0.7% in test [4] (dose 50 uM) and 2% in test [4] (dose 100 uM).
As to `CSSCC(=O)c1ccccc1` [Compound P, phenacyl methyl disulphide], the “% TUNEL +ve” value in test [1] (dose 50 uM) came out at 39%; in test [1] (dose 100 uM), 67%; in test [2] (dose 50 uM), 17%; in test [2] (dose 100 uM) it was 53%; in test [3] (dose 50 uM), 24%; in test [3] (dose 100 uM), 0.2%. Moreover, the “% TUNEL +ve” value in test [4] (dose 50 uM) amounted to 0.70%; in test [4] (dose 100 uM), 1.7%.
